This note sets out measurements from PMC10563079 (Molecules, 2023).

As a reminder, the IC50 is the point on the concentration scale where inhibition reaches its midpoint. As a reminder, the Kd is a measure of binding affinity in units of concentration. One may read the stoichiometry N as a count of units in the complex or per binding partner.

One data set concerns the target T1, sPHGDH (1-307) (Homo sapiens, UniProt O43175).
T1 construct: the truncated version of PHGDH (sPHGDH, 1-307); made in house
T1 sequence (O43175 1-307): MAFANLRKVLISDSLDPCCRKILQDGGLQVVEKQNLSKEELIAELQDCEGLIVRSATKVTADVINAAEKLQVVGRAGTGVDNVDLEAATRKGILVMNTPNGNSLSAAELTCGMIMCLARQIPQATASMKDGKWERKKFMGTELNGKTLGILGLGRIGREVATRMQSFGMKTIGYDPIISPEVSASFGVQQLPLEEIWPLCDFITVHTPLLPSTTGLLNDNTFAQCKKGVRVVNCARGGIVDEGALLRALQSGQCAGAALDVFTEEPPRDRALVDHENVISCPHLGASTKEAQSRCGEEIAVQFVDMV
Put plainly: sPHGDH enzyme activity assay (NADH fluorescence). The format is biochemical. Conditions: sPHGDH; 12 h pre-incubation; read-out: IC50 Value. The procedure:
(§1) PHGDH activity in the presence of peptides was measured in 96-well plates (100 μL per well) at 25 °C, through monitoring the NADH fluorescence (excitation at 360 nm and emission at 460 nm) over time. PAST1 and its substrate glutamate were also included in order to prevent product inhibition. In the enzyme assays, protein expression and purification, including the truncated version of PHGDH (sPHGDH, 1-307), the full-length PHGDH (1-533), and PAST1, were carried out as described in our previous papers. To evaluate the effects of peptides on enzyme activity, the peptides were pre-incubated with enzyme samples (sPHGDH 453.3 nM or PHGDH 30.9 nM) in the assay buffer (HEPES 50 mM, pH 7.5, 10 mM MgCl2, and 1 mM EDTA) for 12 h. Then, 1.98 μM PAST1, 1 mM NAD^+, and 30 mM glutamate were added and pre-incubated for 10 min before initiating the enzyme reaction via the addition of the substrate (1 mM 3-PG). Fluorescence signals were recorded for 3 min with the kinetics-reading mode of the Biotek plate reader (Synergy). IC50 values were obtained through fitting the data using a three-parameter Hill model of the graph of log dose against the percentage inhibition from three repeated experiments. For those peptides containing two disulfide bonds, a second step of oxidation reaction was carried out to generate the second disulfide pair. […] The purified Acm-protected peptide was then treated with iodine (I2, 1 wt% in MeOH), dropwise under acidic conditions until the solution became brown.

In the next data set the target is T2, sPHGDH (Homo sapiens, UniProt O43175).
T2 construct: the truncated version of PHGDH (sPHGDH, 1-307); made in house
T2 sequence (O43175 1-307): T1 sequence (O43175 1-307)
The data set can be described thus: Microscale Thermophoresis (MST) binding assay. The procedure: In this study, we first used Microscale Thermophoresis assays (MST) to evaluate whether the active peptides found in the enzyme inhibition assay directly bind sPHGDH (Table 2).
The binding affinity between the recombinant sPHGDH and cyclic peptides was measured with a NanoTemper Monolith NT.115 instrument (NanoTemper Technologies, Munich, Germany). sPHGDH was first adjusted to a concentration of 10 μM and then labeled with Monolith™ NT.115 Protein Labeling Kit RED-NHS (NanoTemper Technologies, Germany), according to the protocol of the manufacturer. After the protein labeling experiment was completed, sPHGDH was diluted with binding buffer (50 mM HEPES, pH 7.5, 1 mM EDTA, 10 mM MgCl2, 100 mM NaCl, and 0.005% Tween 20) to ensure that the fluorescent intensity of sPHGDH during the MST assay was about 500 RU. In this assay, the final concentration of sPHGDH after mixing with the peptide was 20 nM. Subsequently, the peptides were serially diluted in binding buffer (16 points, 1:2 dilutions, from 0.5 mM), then mixed and incubated with an equal volume of diluted sPHGDH at room temperature for 16 h. After incubation, the samples were loaded into premium treated capillaries and measured by the NanoTemper Monolith NT.115 instrument (NanoTemper Technologies, Germany). […]
In general terms: Microscale thermophoresis detects binding through changes in fluorescence in a small temperature gradient.

The target in data set [1] is T3, full-length PHGDH (1-533) (Homo sapiens, UniProt O43175).
T3 construct: the full-length PHGDH (1-533); made in house
T3 sequence (O43175 1-533): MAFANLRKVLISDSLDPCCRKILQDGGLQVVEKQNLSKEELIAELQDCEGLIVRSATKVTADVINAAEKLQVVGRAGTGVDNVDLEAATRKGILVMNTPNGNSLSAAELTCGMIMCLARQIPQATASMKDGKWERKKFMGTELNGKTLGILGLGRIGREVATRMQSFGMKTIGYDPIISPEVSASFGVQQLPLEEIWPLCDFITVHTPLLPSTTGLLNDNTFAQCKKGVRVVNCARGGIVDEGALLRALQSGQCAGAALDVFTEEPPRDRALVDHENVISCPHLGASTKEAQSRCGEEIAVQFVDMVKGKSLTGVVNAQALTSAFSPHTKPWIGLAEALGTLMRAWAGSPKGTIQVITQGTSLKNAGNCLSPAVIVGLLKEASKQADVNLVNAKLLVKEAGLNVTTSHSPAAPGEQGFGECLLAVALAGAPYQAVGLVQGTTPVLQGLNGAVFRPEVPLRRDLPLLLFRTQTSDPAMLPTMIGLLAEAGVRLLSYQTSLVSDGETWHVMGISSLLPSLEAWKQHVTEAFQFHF
The data set can be described thus: full-length PHGDH enzyme activity assay (NADH fluorescence). The conditions noted are these: IC50 value (μM), full-length PHGDH activity. The format is biochemical. The procedure:
as §1

The target of data set [2] is truncated version of PHGDH (sPHGDH, 1-307) (human) (UniProt O43175).
Data set [3] shares this target. The source holds these as a separate data set.
Data set [4] deals with the molecule itself. The data set can be described thus: cross-linking; sPHGDH 5 µM with peptides (0, 10, 50, 100, 250, 500 µM) and 2.5 mM BS3 in PBS (40 mM, pH 7.3), 25 °C, 30 min; SDS/PAGE; dimer to monomers.

Where “and” joins values, the source holds several entries; their conditions need not be identical. Equal entries are not always repeated. Where two headings read alike, the source gives them in different places. Bridge positions count the residues as written; N and C are the ends. Ends that are not written are not given here. Peptide text beside a SMILES is read from it.

On to `CSCC[C@@H]1NC(=O)[C@H](CO)NC(=O)[C@H](CC(C)C)NC(=O)[C@H]([C@@H](C)O)NC(=O)[C@H](C)NC(=O)[C@H](CCC(N)=O)NC(=O)[C@@H]2CCCN2C(=O)[C@H]([C@@H](C)O)NC(=O)[C@@H](NC(C)=O)CSSC[C@@H](C(=O)O)NC(=O)[C@H](CCCCN)NC(=O)[C@H](CCCCN)NC(=O)[C@H](CCC(N)=O)NC(=O)[C@H](CCC(=O)O)NC(=O)[C@H](Cc2c[nH]c3ccccc23)NC(=O)[C@H](CO)NC(=O)CNC(=O)[C@H](CC(N)=O)NC(=O)[C@H](CCCCN)NC1=O` [Cyc1-12, C1TPQA TLSMK NGSWE QKKC19] (Ac-CTPQATLSMKNGSWEQKKC-OH; disulfide 1-19), for which the IC50 at sPHGDH (1-307) was 5.6 ± 1.4 µM. Besides, the Kd at sPHGDH (MST, sPHGDH 20 nM, 1:1 binding mode, read-out: KD) is 13.4 ± 3.1 µM.
In the case of `CSCC[C@@H]1NC(=O)[C@@H]2CSSC[C@H](NC(=O)[C@H](Cc3c[nH]c4ccccc34)NC(=O)[C@H](CCCCN)NC(=O)CNC(=O)[C@H](CC(=O)O)NC(=O)[C@H](CCCNC(=N)N)NC1=O)C(=O)N[C@@H](CCCNC(=N)N)C(=O)N[C@@H](CCCCN)C(=O)N[C@@H](CCCCN)C(=O)N[C@H](C(=O)O)CSSC[C@H](NC(C)=O)C(=O)N[C@@H]([C@@H](C)O)C(=O)N1CCC[C@H]1C(=O)N[C@@H](CCC(N)=O)C(=O)N[C@@H](C)C(=O)N[C@@H]([C@@H](C)O)C(=O)N[C@@H](C)C(=O)N2` [Cyc2-3, C1TPQA TAC8MR DGKWC15 RKKC19] (Ac-CTPQATACMRDGKWCRKKC-OH; disulfide 1-19, 8-15), the IC50 in data set [1] was 53.1 µM and 32.9 µM. Also, the Kd at sPHGDH is 5.1 ± 1 µM.

B1: cyclic peptide cyc1-5 (peptide)
peptide: CTPQATASMLDGKWEWKKC
modifications: disulfide 1-19; not fully specified (N-terminus); printed as C_1_TPQA TASML DGKWE WKKC_19_
As for B1, the IC50 of inhibition of sPHGDH enzyme activity (NADH fluorescence); the pair blocked is the sPHGDH homo-dimer (m1+m1) in data set [2] came to 13.4 µM. The molecule also came in with an IC50 of inhibition of sPHGDH enzyme activity (NADH fluorescence); the pair blocked is the sPHGDH homo-dimer (m1+m1), differs from the table in data set [3] of 13.7 µM.

B2: truncated version of PHGDH (sPHGDH, 1-307) (domain or fragment, human, UniProt O43175 1-307, looked up)
chain: T1 sequence (O43175 1-307)
modifications: labelled with Monolith NT.115 Protein Labeling Kit RED-NHS (in the MST assay only)
notes: human phosphoglycerate dehydrogenase (PHGDH), catalytic unit, residues 1-307; Exists predominantly as a homo-dimer with a small fraction of monomer; also called catalytic unit of PHGDH; source: recombinant
Consider B2, for which, in data set [4], the “stoichiometry N” value came out at 2.
